Laboratory results taken from patent US20260248761A1, “COMPOSITIONS AND METHODS FOR TREATMENT OF PULMONARY HYPERTENSION” (EpicentRx, Inc., priority 2022, published 2026).
“And” between values parts separate entries of the source, which are not always exact repeats. Equal values may be shown once. Read-outs that look alike come from different tables or passages of the source.

Tests used:
male Wistar rats [1] = type: in vivo, rat
Method: (§1) Male Wistar rats were kept in an isobaric hypoxic chamber with intermittent hypoxia (FiO2=10%) for (1) week (6 hours/day, 6 day/week). […] For administration, the RRx-001 (10 mg/kg) was mixed with blood and injected via the tail at the beginning of hypoxia exposure every day. […] Untreated control animals were not administered any agents and the SHAM (Control) group was not subjected to hypoxia.
Mean aortic pressure (mAP) was recorded by an arterial catheter inserted via the carotid artery.

male Wistar rats [2] = experiment: Echocardiograph: ejection fraction and fractional shortening, hypoxia PAH study; settings: RRx-001 5 mg/kg or Bosentan 50 mg/kg mixed with blood; for ejection fraction, lower value / ejection fraction, median value / ejection fraction, upper value: FIG. 3A; for ejection fraction, lower value: PAH group 49%, control 65%; for ejection fraction, median value: PAH group 51%, control 68%; for ejection fraction, median value / fractional shortening, median value: RRx-001 p<0.05 vs PAH; for ejection fraction, upper value: PAH group 59%, control 72%; for fractional shortening, median value / fractional shortening, upper value: FIG. 3B; for fractional shortening, median value: PAH group 31%, control 42%; for fractional shortening, upper value: PAH group 33%, control 44%
Method: The male Wistar rats exposed to hypoxia were then divided into 3 groups for the study. A first group of 6 male Wistar rats were untreated and labeled “PAH”. A second group of 6 male Wistar rats were treated with the RRx-001. A third group of 6 male Wistar rats were treated with Bosentan, which is a drug that is used to treat PAH.
Treatment for the second group of male Wistar rats comprised mixing 5 mg/kg RRx-001 with blood and administering the mixture via tail injection before the hypoxia exposure. Similarly, treatment for the third group of male Wistar rats comprised mixing 50 mg/kg Bosentan with blood and administering the mixture daily via tail injection before the hypoxia exposure.

male Wistar rats [3] = experiment: Lung morphological changes: relative medial wall thickness and area, hypoxia PAH study; type: in vivo, rat; settings: RRx-001 5 mg/kg or Bosentan 50 mg/kg mixed with blood; for medial wall thickness relative to external diameter, lower value / medial wall thickness relative to external diameter, median value / medial wall thickness relative to external diameter, upper value: FIG. 4A; for medial wall thickness relative to external diameter, lower value: PAH group 0.13, control 0.07; for medial wall thickness relative to external diameter, median value: PAH group 0.14, control 0.07; for medial wall thickness relative to external diameter, upper value: PAH group 0.15, control 0.08; for medial wall area relative to lumen area, lower value / medial wall area relative to lumen area, median value / medial wall area relative to lumen area, upper value: FIG. 4B; for medial wall area relative to lumen area, lower value: PAH group 0.16, control 0.11; for medial wall area relative to lumen area, median value: PAH group 0.17, control 0.12; for medial wall area relative to lumen area, upper value: PAH group 0.21, control 0.14
Method: To collect the data, male Wistar rats lungs were removed and fixed in paraformaldehyde, then dehydrated and embedded in paraffin for sectioning. The relative medial thickness and relative medial areas were calculated from vessels showing a clearly defined external and internal elastic lamina.

male Wistar rats [4] = experiment: Wet weight ratio (Fulton index) RV/(LV+SP), right ventricular hypertrophy, hypoxia PAH study; type: in vivo, rat; settings: FIG. 2, RRx-001 5 mg/kg or Bosentan 50 mg/kg mixed with blood; for wet weight ratio RV/(LV+SP), lower value: PAH group 0.38, control 0.28; for wet weight ratio RV/(LV+SP), median value: PAH group 0.43, control 0.31; for wet weight ratio RV/(LV+SP), upper value: PAH group 0.44, control 0.33
Source text: A distribution of the collected data is plotted on the graph for the 4 groups of male Wistar rats: the control group, the PAH group, the RRx-001 group, and the Bosentan group. The calculated wet weight ratio is intended to be an indicator of right ventricular hypertrophy.
To measure the wet weight ratio, the heart was excised, the atria were removed, and the wall of the right ventrical (RV) was separated from the heart. Tissues were blotted and weighed. […] The elevated pulmonary arterial pressure was paralleled by an increase in systolic pressure, and right ventricular hypertrophy according to the Fulton index.

male Wistar rats [5] = experiment: Mean pulmonary artery pressure (mPAP) by catheter, intermittent hypoxia PAH study; type: in vivo, rat; settings: FIG. 1A, intermittent hypoxia FiO2 10%, RRx-001 5 mg/kg or Bosentan 50 mg/kg mixed with blood, tail injection; for mPAP, lower value of group distribution: PAH group 27, control 16; for mPAP, median value of group distribution: PAH group 30, control 17, RRx-001 p<0.05 vs PAH; for mPAP, upper value of group distribution: PAH group 33, control 20
Method: (§2) The study exposed 18 male Wistar rats to an isobaric chamber with intermittent hypoxia where the fraction of inspired oxygen (FiO2) is 10%.
The mPAP was recorded in FIG. 1A using a catheter introduced into the right jugular vein of the male Wistar rats and passed across the tricuspid valve and a right ventricle into the pulmonary artery. A distribution of the mPAP results for the various groups is plotted in FIG. 1A.

male Wistar rats [6] = experiment: Mean aortic pressure (mAP) by arterial catheter, intermittent hypoxia PAH study; type: in vivo, rat; settings: FIG. 1B, RRx-001 5 mg/kg or Bosentan 50 mg/kg mixed with blood; for mAP, lower value of group distribution: PAH group 117, control 98; for mAP, median value of group distribution: PAH group 137, control 113, RRx-001 p<0.05 vs PAH; for mAP, upper value of group distribution: PAH group 147, control 116
Method: as §2
The second graph, FIG. 1B, is a distribution of mean aortic pressure (mAP) that was recorded by an arterial catheter inserted via the carotid artery of the male Wistar rats. The PAH group distribution has an upper value for mAP of approximately 147 mmHg, a median value for the mAP of approximately 137 mmHg, and a lower value for the mAP of approximately 117 mmHg. The RRx-001 group has an upper value for the mAP of approximately 134 mmHg, a median value for the mAP of approximately 121 mmHg, and a lower value for the mAP of approximately 116 mmHg. The p value as determined for the mAP results between the PAH group and the RRx-001 group is less than 0.05.

Wistar rats = settings: FIG. 9, blood
male Wistar rats [7] = experiment: H&E staining of the pulmonary arteriole (pulmonary vascular remodeling); type: in vivo, rat; settings: FIG. 10, hypoxia induced PAH rats
Source text: FIG. 10 depicts the effect of the RRx-001 and Bosentan on pulmonary vascular remodeling. Specifically, FIG. 10 depicts images showing H&E staining in the pulmonary arteriole.

male Wistar rats [8] = type: in vivo, rat; remark: listed apart in the source
Method: To measure the wet weight ratio, the heart was excised, the atria were removed, and the wall of the right ventrical (RV) was separated from the heart. Tissues were blotted and weighed.
as §1
The wet weight ratio is an indicator of right ventricle hypertrophy. The wet weight ratios were measured according to the same procedure as set out in the description for FIG. 2.

male Wistar rats [9] = type: in vivo, rat; settings: FIG. 5A, hypoxia 1 week
Method: as §1
Mean pulmonary pressure (mPAP) was recorded using a catheter introduced in the right jugular vein and passed across the tricuspid valve and right ventricle into the pulmonary artery.

Compound | ejection fraction, lower value (male Wistar rats [2]) | ejection fraction, median value (male Wistar rats [2]) | ejection fraction, upper value (male Wistar rats [2]) | fractional shortening, median value (male Wistar rats [2]) | fractional shortening, upper value (male Wistar rats [2]) | medial wall thickness relative to external diameter, lower value (male Wistar rats [3]) | medial wall thickness relative to external diameter, median value (male Wistar rats [3]) | medial wall thickness relative to external diameter, upper value (male Wistar rats [3]) | medial wall area relative to lumen area, lower value (male Wistar rats [3]) | medial wall area relative to lumen area, median value (male Wistar rats [3]) | medial wall area relative to lumen area, upper value (male Wistar rats [3]) | wet weight ratio RV/(LV+SP), lower value (male Wistar rats [4]) | wet weight ratio RV/(LV+SP), median value (male Wistar rats [4]) | wet weight ratio RV/(LV+SP), upper value (male Wistar rats [4]) | mPAP, lower value of group distribution (male Wistar rats [5]) | mPAP, median value of group distribution (male Wistar rats [5]) | mPAP, upper value of group distribution (male Wistar rats [5]) | mAP, lower value of group distribution (male Wistar rats [6]) | mAP, median value of group distribution (male Wistar rats [6]) | mAP, upper value of group distribution (male Wistar rats [6]) | further results
O=NO [nitrite, reference compound] |  |  |  |  |  |  |  |  |  |  |  |  |  |  |  |  |  |  |  |  | effect of nitrite on mAP versus mPAP (male Wistar rats [1]; rat, in vivo): systemic effect on mAP but less significant on mPAP; median mAP (male Wistar rats [1]; rat, in vivo): ~122 mmHg and ~126 mmHg and ~120 mmHg
COc1ccccc1Oc1c(NS(=O)(=O)c2ccc(C(C)(C)C)cc2)nc(-c2ncccn2)nc1OCCO [Bosentan, reference compound] | approximately 52% | approximately 59% | approximately 63% | approximately 38% | approximately 42% | approximately 0.09 | approximately 0.10 | approximately 0.12 | approximately 0.14 | approximately 0.16 | approximately 0.17 | approximately 0.32 | approximately 0.35 | approximately 0.39 | approximately 21 mmHg | approximately 22 mmHg | approximately 24 mmHg | approximately 108 mmHg | approximately 120 mmHg | approximately 126 mmHg | 
O=C(CBr)N1CC([N+](=O)[O-])([N+](=O)[O-])C1 [RRx-001, 2-bromo-1-(3,3-dinitroazetidin-1-yl) ethan-1-one] | approximately 60% | approximately 66% | approximately 69% | approximately 38% | approximately 39% | approximately 0.07 | approximately 0.08 | approximately 0.09 | approximately 0.14 | approximately 0.14 | approximately 0.16 | approximately 0.34 | approximately 0.35 | approximately 0.39 | approximately 23 mmHg | approximately 26 mmHg | approximately 28 mmHg | approximately 116 mmHg | approximately 121 mmHg | approximately 134 mmHg | median metHb concentration (Wistar rats; RRx-001 10 mg/kg + nitrite 10 mg/kg): ~3%; median metHb concentration (Wistar rats; RRx-001 10 mg/kg + nitrite 20 mg/kg): ~7%; median metHb concentration (Wistar rats; RRx-001 10 mg/kg + nitrite 40 mg/kg): ~12%; median metHb concentration (Wistar rats; RRx-001 10 mg/kg, nitrite 0, saline/0 nitrite and controls 1%): approximately 1%; increases in pulmonary vascular wall thickness and muscularization of the pulmonary arteriole (male Wistar rats [7]): inhibited; median wet weight ratio RV/(LV+SP) (male Wistar rats [8]; FIG. 7/8, hypoxia 1 week, RRx-001 10 mg/kg + nitrite 10 mg/kg): approximately 0.40 mg/mg; median wet weight ratio RV/(LV+SP) (male Wistar rats [8]; FIG. 7/8, hypoxia 1 week, RRx-001 10 mg/kg + nitrite 20 mg/kg): ~0.35 mg/mg; median wet weight ratio RV/(LV+SP) (male Wistar rats [8]; FIG. 7/8, hypoxia 1 week, RRx-001 10 mg/kg + nitrite 40 mg/kg): ~0.32 mg/mg; effect on right ventricle hypertrophy (wet weight ratio) (male Wistar rats [8]; FIG. 7/8, hypoxia study with nitrite, result in words): has an effect on right ventricle hypertrophy; median wet weight ratio RV/(LV+SP) (male Wistar rats [8]; rat, in vivo, 10 mg/kg): approximately 0.37 mg/mg; median mPAP (male Wistar rats [9]; RRx-001 10 mg/kg + nitrite (NaNO2) 10 mg/kg s.c.): ~18 mmHg; median mPAP (male Wistar rats [9]; RRx-001 10 mg/kg + nitrite (NaNO2) 20 mg/kg s.c.): ~16 mmHg; median mPAP (male Wistar rats [9]; RRx-001 10 mg/kg + nitrite (NaNO2) 40 mg/kg s.c.): ~15 mmHg; median mPAP (male Wistar rats [9]; RRx-001 10 mg/kg mixed with blood daily, nitrite 0, saline/0 nitrite 23, control 20, SHAM 17): approximately 17 mmHg; median mAP (male Wistar rats [1]; FIG. 5B, hypoxia 1 week, RRx-001 10 mg/kg + nitrite 10 mg/kg s.c.): ~115 mmHg; median mAP (male Wistar rats [1]; FIG. 5B, hypoxia 1 week, RRx-001 10 mg/kg + nitrite 20 mg/kg s.c.): ~107 mmHg; median mAP (male Wistar rats [1]; FIG. 5B, hypoxia 1 week, RRx-001 10 mg/kg + nitrite 40 mg/kg s.c.): ~102 mmHg; median mAP (male Wistar rats [1]; FIG. 5B, hypoxia 1 week, RRx-001 10 mg/kg mixed with blood daily, nitrite 0, saline/0 nitrite 137, control 124, SHAM 109): approximately 116 mmHg
